The results in this text go back to patent publication US20240336608A1, “IL4I1 INHIBITORS AND METHODS OF USE” (Merck Sharp & Dohme LLC, priority 2023, published 2024).

The target in this assay is T1, recombinant IL4I1 (Homo sapiens, UniProt Q96RQ9).
T1 construct: purchased R&D Systems 5684-AO-020
T1 sequence (Q96RQ9 22-567): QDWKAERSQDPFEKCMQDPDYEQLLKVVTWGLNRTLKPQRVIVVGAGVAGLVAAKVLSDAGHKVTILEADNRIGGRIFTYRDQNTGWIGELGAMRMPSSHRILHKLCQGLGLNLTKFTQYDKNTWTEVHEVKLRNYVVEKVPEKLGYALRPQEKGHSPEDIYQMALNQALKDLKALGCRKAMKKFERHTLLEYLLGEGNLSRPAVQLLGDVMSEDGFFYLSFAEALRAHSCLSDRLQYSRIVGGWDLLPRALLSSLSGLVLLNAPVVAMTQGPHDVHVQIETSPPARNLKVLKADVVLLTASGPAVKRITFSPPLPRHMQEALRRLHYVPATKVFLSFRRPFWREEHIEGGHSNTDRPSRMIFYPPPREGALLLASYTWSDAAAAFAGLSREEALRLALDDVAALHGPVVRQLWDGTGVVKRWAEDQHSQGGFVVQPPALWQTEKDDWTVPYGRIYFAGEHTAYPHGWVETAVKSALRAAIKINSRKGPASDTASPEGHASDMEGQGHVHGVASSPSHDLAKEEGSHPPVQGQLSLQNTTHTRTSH
As to the kind of experiment: IL4I1 Enzymatic Assay (Amplex Red/HRP coupled detection of H2O2, fluorescence). The class given is biochemical. To be noted: 1 nM recombinant IL4I1; four-hour pre-incubation with compound; 1 mM each Phe, Tyr, Trp; ten-point titration. In outline: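 H2O2 output was coupled to resorufin fluorescence (ex 544/em 590) via 0.05 mM Amplex Red and 1 U/mL HRP. Substrate: Phe, Tyr, Trp at 1 mM each; enzyme 1 nM, 4 h compound pre-incubation, 120 min reaction, pH 7.0 Hepes. EC50 by nonlinear four-parameter regression, 1:3 ten-point titration.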
For orientation: EC50 means the midpoint of the concentration-response curve. With `Cc1ccc(-n2cc(C(=O)NCc3ccc(-c4ccsc4)nn3)nn2)c(C)n1` [Example 118, 1-(2,6-dimethylpyridin-3-yl)-N-((6-(thiophen-3-yl)pyridazin-3-yl)methyl)-1H-1,2,3-triazole-4-carboxamide], the half-maximal effective concentration (EC50) stood at 31 nM.
Under `Cc1ccc(-n2cc(C(=O)NCc3ccc(-c4ccccc4Cl)nn3)nn2)c(C)n1` [Example 119, N-((6-(2-chlorophenyl)pyridazin-3-yl)methyl)-1-(2,6-dimethylpyridin-3-yl)-1H-1,2,3-triazole-4-carboxamide] stands 482 nM; under `Cc1ccc(-n2cc(C(=O)NCc3ccc(-c4cccc(F)c4)nn3)nn2)c(C)n1` [Example 120, 1-(2,6-dimethylpyridin-3-yl)-N-((6-(3-fluorophenyl)pyridazin-3-yl)methyl)-1H-1,2,3-triazole-4-carboxamide], 123 nM; under `Cc1ccc(-n2cc(C(=O)NCc3ccc(-c4cccs4)nn3)nn2)c(C)n1` [Example 121, 1-(2,6-dimethylpyridin-3-yl)-N-((6-(thiophen-2-yl)pyridazin-3-yl)methyl)-1H-1,2,3-triazole-4-carboxamide], 24 nM.
Under `Cc1ccc(-n2cc(C(=O)NCc3ccc(-c4sccc4C)nn3)nn2)c(C)n1` [Example 122, 1-(2,6-dimethylpyridin-3-yl)-N-((6-(3-methylthiophen-2-yl)pyridazin-3-yl)methyl)-1H-1,2,3-triazole-4-carboxamide] stands 571 nM; under `Cc1ccc(-n2cc(C(=O)NCc3ccc(-c4cc(F)ccc4F)nn3)nn2)c(C)n1` [Example 123, N-((6-(2,5-difluorophenyl)pyridazin-3-yl)methyl)-1-(2,6-dimethylpyridin-3-yl)-1H-1,2,3-triazole-4-carboxamide], 223 nM; under `CC1(n2cc(C(=O)NCc3nnc(-c4ccccc4)s3)nn2)CCC1` [Example 124, 1-(1-methylcyclobutyl)-N-((5-phenyl-1,3,4-thiadiazol-2-yl)methyl)-1H-1,2,3-triazole-4-carboxamide], 23 nM.
Under `O=C(NCc1nnc(-c2ccccc2)s1)c1cn(CCN2CCNC2=O)nn1` [Example 125, 1-(2-(2-oxoimidazolidin-1-yl)ethyl)-N-((5-phenyl-1,3,4-thiadiazol-2-yl)methyl)-1H-1,2,3-triazole-4-carboxamide] stands 453 nM; under `CC(C)(Cn1cc(C(=O)NCc2nnc(-c3ccccc3)s2)nn1)C(N)=O` [Example 126, 1-(3-amino-2,2-dimethyl-3-oxo-propyl)-N-[(5-phenyl-1,3,4-thiadiazol-2-yl)methyl]triazole-4-carboxamide], 843 nM.
For `O=C(NCc1nnc(-c2ccccc2)s1)c1cn(CC(O)C(F)(F)F)nn1` (stereo not shown) [Example 127, N-((5-phenyl-1,3,4-thiadiazol-2-yl)methyl)-1-(3,3,3-trifluoro-2-hydroxypropyl)-1H-1,2,3-triazole-4-carboxamide], the half-maximal effective concentration (EC50) was 73 nM.
Regarding `C[C@H](O)Cn1cc(C(=O)NCc2nnc(-c3ccccc3)s2)nn1` [Example 128, (S)-1-(2-hydroxypropyl)-N-((5-phenyl-1,3,4-thiadiazol-2-yl)methyl)-1H-1,2,3-triazole-4-carboxamide], the half-maximal effective concentration (EC50) stood at 27 nM.
Take `O=C(NCc1nnc(-c2ccccc2)s1)c1cn(CC2CCOC2)nn1` (stereo not shown) [Example 129, N-((5-phenyl-1,3,4-thiadiazol-2-yl)methyl)-1-((tetrahydrofuran-3-yl)methyl)-1H-1,2,3-triazole-4-carboxamide]: the EC50 was determined as 124 nM.
As for `C[C@@H]1C[C@H]1n1cc(C(=O)NCc2nnc(-c3ccccc3)s2)nn1` [Example 134, 1-((1R,2R)-2-methylcyclopropyl)-N-((5-phenyl-1,3,4-thiadiazol-2-yl)methyl)-1H-1,2,3-triazole-4-carboxamide], the figure is 166 nM; as for `O=C(NCc1nnc(-c2ccccc2)s1)c1cn(CC2(F)CCC2)nn1` [Example 135, 1-((1-fluorocyclobutyl)methyl)-N-((5-phenyl-1,3,4-thiadiazol-2-yl)methyl)-1H-1,2,3-triazole-4-carboxamide], 100 nM; as for `O=C(NCc1nnc(-c2ccccc2)s1)c1cn(CC2(O)CC2)nn1` [Example 136, 1-((1-hydroxycyclopropyl)methyl)-N-((5-phenyl-1,3,4-thiadiazol-2-yl)methyl)-1H-1,2,3-triazole-4-carboxamide], 29 nM.
Under `O=C(NCc1nnc(-c2ccccc2)s1)c1cn(CC2(O)CCC2)nn1` [Example 137, 1-((1-hydroxycyclobutyl)methyl)-N-((5-phenyl-1,3,4-thiadiazol-2-yl)methyl)-1H-1,2,3-triazole-4-carboxamide] stands 574 nM.
Under `O=C(NCc1nnc(-c2ccccc2)s1)c1cn(CC2(O)COC2)nn1` [Example 140, 1-((3-hydroxyoxetan-3-yl)methyl)-N-((5-phenyl-1,3,4-thiadiazol-2-yl)methyl)-1H-1,2,3-triazole-4-carboxamide] stands 10 nM; under `C[C@@H](C1COC1)n1cc(C(=O)NCc2nnc(-c3ccccc3)s2)nn1` [Example 148, (S)-1-(1-(oxetan-3-yl)ethyl)-N-((5-phenyl-1,3,4-thiadiazol-2-yl)methyl)-1H-1,2,3-triazole-4-carboxamide], 164 nM; under `C[C@H](C1COC1)n1cc(C(=O)NCc2nnc(-c3ccccc3)s2)nn1` [Example 149, (R)-1-(1-(oxetan-3-yl)ethyl)-N-((5-phenyl-1,3,4-thiadiazol-2-yl)methyl)-1H-1,2,3-triazole-4-carboxamide], 132 nM.
In the case of `O=C(NCc1nnc(-c2ccccc2)s1)c1cn(CC2(F)CC2)nn1` [Example 150, 1-((1-fluorocyclopropyl)methyl)-N-((5-phenyl-1,3,4-thiadiazol-2-yl)methyl)-1H-1,2,3-triazole-4-carboxamide], the EC50 is 4 nM.
Turning to `O=C(NCc1nnc(-c2ccccc2)s1)c1cn(C2(CF)CC2)nn1` [Example 151, 1-(1-(fluoromethyl)cyclopropyl)-N-((5-phenyl-1,3,4-thiadiazol-2-yl)methyl)-1H-1,2,3-triazole-4-carboxamide], the 50% effective concentration (EC50) was found to be 25 nM.
Under `O=C(NCc1nnc(-c2ccccc2)s1)c1cn(C2(C(F)F)CC2)nn1` [Example 152, 1-(1-(difluoromethyl)cyclopropyl)-N-((5-phenyl-1,3,4-thiadiazol-2-yl)methyl)-1H-1,2,3-triazole-4-carboxamide] stands 167 nM.
Under `O=C(NCc1nnc(-c2ccccc2)s1)c1cn(C2(C(F)(F)F)CC2)nn1` [Example 153, N-((5-phenyl-1,3,4-thiadiazol-2-yl)methyl)-1-(1-(trifluoromethyl)cyclopropyl)-1H-1,2,3-triazole-4-carboxamide] stands 593 nM; under `O=C(NCc1nnc(-c2ccccc2)s1)c1cn(Cc2ccno2)nn1` [Example 154, 1-(isoxazol-5-ylmethyl)-N-((5-phenyl-1,3,4-thiadiazol-2-yl)methyl)-1H-1,2,3-triazole-4-carboxamide], 49 nM; under `CC(c1ccno1)n1cc(C(=O)NCc2nnc(-c3ccccc3)s2)nn1` (stereo not shown) [Example 155, 1-(1-(isoxazol-5-yl)ethyl)-N-((5-phenyl-1,3,4-thiadiazol-2-yl)methyl)-1H-1,2,3-triazole-4-carboxamide], 13 nM.
